According to publication PMC8175350, “Drug repurposing screens identify chemical entities for the development of COVID-19 interventions” (Nature Communications, 2021):
Values joined by “and” are separate entries in the source; they are usually repeats but may differ in a detail not shown here. Equal entries are not always repeated. Where two headings read alike, the source gives them in different places.

Tests used:
SARS-CoV-2 [1] = assay: microbe, parasite or virus in culture; format: cell-based; conditions: for %infected: HeLa-ACE2, replicate wells n=1-3
[2] = Uninfected HeLa-ACE2 24 h live/dead cytotoxicity counter screen; format: cell-based, human; conditions: human, uninfected HeLa-ACE2 cells, geomean; read-out: uninfected HeLa-ACE2 cytotoxicity CC50
HeLa-ACE2 cells [3] = assay: as above; format: cell-based, human; conditions: HeLa-ACE2, replicate wells n=1-3
SARS-CoV-2 [4] = assay: microbe, parasite or virus in culture; format: cell-based; conditions: for %infected: Calu-3, replicate wells n=1-3
SARS-CoV-2 [5] = assay: microbe, parasite or virus in culture; format: cell-based; conditions: for TOA: HeLa-ACE2, replicate wells n=1-3
HeLa-ACE2 cells [6] = assay: cells; conditions: Homo sapiens, HeLa-ACE2, read-out: cell count in infection assay EC50, HeLa-ACE2, geomean; ^↑ = increasing dose-response curve
Calu-3 cells [7] = assay: cells; conditions: Homo sapiens, Calu-3, read-out: cell count EC50, Calu-3, geomean; ^↑ = increasing dose-response curve
[8] = Uninfected Calu-3 48 h Cell-Titer Glo cytotoxicity counter screen; conditions: human, uninfected Calu-3 cells, cytotoxicity CC50, uninfected Calu-3, geomean
Calu-3 cells [9] = assay: as above; conditions: Calu-3, replicate wells n=1-3

COc1ccc(C[C@H](N)C(=O)N[C@H]2[C@@H](O)[C@H](n3cnc4c(N(C)C)ncnc43)O[C@@H]2CO)cc1 [Puromycin]
EC50 (SARS-CoV-2 [1]; HeLa-ACE2, individual values of 9 independent experiments, read-out: EC50 (µM), Fig 1c): 0.435 µM and 0.38 µM and 0.598 µM and 0.621 µM and 0.45 µM and 0.531 µM and 0.521 µM and 0.566 µM and 0.31 µM | %infected (SARS-CoV-2 [1]; concentration log[M] -5.017): -100.174% and -66.1982% and -101.885% and -101.158% and -100.229% and -100.414% and -100.159% and -100.524% and -100% | %infected (SARS-CoV-2 [1]; concentration log[M] -5.4942): -100.174% and -93.9019% and -89.6683% and -95.454% and -98.8405% and -100.414% and -93.5473% and -100.524% and -98.8065% | %infected (SARS-CoV-2 [1]; concentration log[M] -5.9713): -100.174% and -98.3678% and -99.6425% and -99.9897% and -99.6057% and -100.414% and -99.8612% and -100.183% and -99.7407% | %infected (SARS-CoV-2 [1]; concentration log[M] -6.4484): 1.313% | EC50 (SARS-CoV-2 [1]; Severe acute respiratory syndrome coronavirus 2, HeLa-ACE2, HeLa-ACE2, MOI 0.09, read-out: EC50): 0.52 µM | EC50 (SARS-CoV-2 [1]; Severe acute respiratory syndrome coronavirus 2, HeLa-ACE2, HeLa-ACE2, MOI 0.26, read-out: EC50): 0.433 µM | EC50 (SARS-CoV-2 [1]; Severe acute respiratory syndrome coronavirus 2, HeLa-ACE2, HeLa-ACE2, MOI 0.51, read-out: EC50): 0.43 µM | EC50 (SARS-CoV-2 [1]; Severe acute respiratory syndrome coronavirus 2, HeLa-ACE2, HeLa-ACE2, MOI 1.1, read-out: EC50): 0.431 µM | EC50 (SARS-CoV-2 [1]; Severe acute respiratory syndrome coronavirus 2, HeLa-ACE2, HeLa-ACE2, MOI 2.2, read-out: EC50): 0.455 µM | EC50 (SARS-CoV-2 [1]; Severe acute respiratory syndrome coronavirus 2, HeLa-ACE2, HeLa-ACE2, geomean, read-out: SARS-CoV-2 EC50): 0.48 µM | CC50 at 24 h [2]: 658 nM | cytotox (HeLa-ACE2 cells [3]; concentration log[M] -4.39794): -100 (5×) and -99.957 and -100.055 and -99.8917 and -99.5551 | cytotox (HeLa-ACE2 cells [3]; concentration log[M] -4.87506): -100 (5×) and -100.043 and -100.055 and -99.8917 and -99.8888 | cytotox (HeLa-ACE2 cells [3]; concentration log[M] -5.35218): -99.2405 and -100.043 and -100 and -99.7082 and -99.8513 and -99.7143 and -99.834 and -99.8917 and -99.8888 | cytotox (HeLa-ACE2 cells [3]; concentration log[M] -5.8293): -94.5992 and -94.54 and -94.2197 and -97.5201 and -91.5242 and -94.1429 and -95.9602 and -98.5916 and -99.2214 | cytotox (HeLa-ACE2 cells [3]; concentration log[M] -6.30643): -16.5401 and -18.2717 and -10.2395 and -53.9023 and -53.9033 and -44.2857 and -37.078 and -52.3294 and -37.5973 | cytotox (HeLa-ACE2 cells [3]; concentration log[M] -6.78355): -2.194 and 3.482 and 5.615 and -5.9081 and 6.4684 and -6.286 and -2.656 and 2.0585 and 1.78 | cytotox (HeLa-ACE2 cells [3]; concentration log[M] -7.26067): 9.198 and 8.212 and 13.6251 and -16.9949 and 6.9145 and -11.5714 and 1.66 and 4.117 and 13.2369 | cytotox (HeLa-ACE2 cells [3]; concentration log[M] -7.73779): 5.148 and 2.193 and 2.395 and 7.367 and 9.294 and 9.714 and 11.1787 and -1.625 and 6.897 | %infected (SARS-CoV-2 [4]; concentration log[M] -5): -95.8583% and -98.0315% and -98.6862% and -95.9501% and -76.0417% and -82.6326% and -93.9332% and -99.6609% and -93.5404% | %infected (SARS-CoV-2 [4]; concentration log[M] -5.47712): -67.9332% and -73.9862% and -77.2001% and -69.7882% and -47.5028% and -51.8982% and -50.0755% and -50.9352% and -58.0559% | %infected (SARS-CoV-2 [4]; concentration log[M] -5.95424): -28.7555% and -23.4276% and -35.8088% and -33.2702% and 12.7351% and -26.1199% and 1.582% and -3.868% and -16.5101% | %infected (SARS-CoV-2 [4]; concentration log[M] -6.43136): -8.682% and 16.1023% and -10.697% and 2.701% and -30.2762% and -2.034% and 9.733% and 3.624% and 18.0604% | %infected (SARS-CoV-2 [4]; concentration log[M] -6.90849): 14.8237% and -16.8235% and 10.3561% and -2.261% and -10.1676% and -3.437% and 1.061% and 10.2779% and -14.1014% | %infected (SARS-CoV-2 [4]; concentration log[M] -7.38561): 9.109% and 11.8626% and -0.1312% and 10.7467% and -22.0858% and 7.736% and -8.662% and -8.078% and 8.576% | %infected (SARS-CoV-2 [4]; concentration log[M] -7.86273): -4.7462% and 13.3419% and -1.416% and -3.878% and 20.4436% and -1.961% and -6.536% and -8.873% and -15.4821% | %infected (SARS-CoV-2 [4]; concentration log[M] -8.33985): 2.5816% and -20.6025% and -3.165% and -4.091% and -15.6383% and 9.983% and 19.7898% and 7.961% and 5.366% | EC50 (SARS-CoV-2 [4]; Severe acute respiratory syndrome coronavirus 2, Calu-3, Calu-3, geomean, read-out: SARS-CoV-2 EC50): 2740 nM | TOA (SARS-CoV-2 [5]; concentration log[M] -5.017): -102.365 and -102.878 and -104.791 and -98.49 and -99.8269 and -99.8889 and -98.5459 and -89.5564 and -100 | TOA (SARS-CoV-2 [5]; concentration log[M] -5.4942): -102.562 and -103.725 and -107.111 and -95.8769 and -99.8786 and -99.7495 and -98.3444 and -97.4941 and -99.8965 | TOA (SARS-CoV-2 [5]; concentration log[M] -5.9713): -102.27 and -103.614 and -103.314 and -96.7138 and -100 (3×) and -98.3433 and -92.9164 | TOA (SARS-CoV-2 [5]; concentration log[M] -6.4484): -6.41 and -22.1743 and -1.526 and -76.305 and -86.1829 and -83.03 and -58.994 and -58.9112 and -89.0793 | TOA (SARS-CoV-2 [5]; concentration log[M] -6.9255): -12.6152 and -14.5357 and 3.304 and -16.4877 and -30.7409 and -13.5207 and -8.881 and -3.253 and -32.0225 | TOA (SARS-CoV-2 [5]; concentration log[M] -7.4026): -1.409 and 2.055 and 2.822 and -9.903 and -4.893 and -5.119 and -5.9163 and -2.505 and -5.006 | TOA (SARS-CoV-2 [5]; concentration log[M] -7.8798): -0.7005 and -1.372 and 4.453 and -4.998 and -0.516 and 2.028 and -14.3841 and -2.585 and -13.6565 | EC50 (SARS-CoV-2 [5]; Severe acute respiratory syndrome coronavirus 2, HeLa-ACE2, fixed 10 hpi, geomean, read-out: CoV-2 TOA EC50): 316 nM | EC50 (HeLa-ACE2 cells [6]): 1550 nM | EC50 (Calu-3 cells [7]): > 10000 nM | CC50 at 48 h [8]: 3950 nM | cytotox (Calu-3 cells [9]; concentration log[M] -4.52288): -100.931 and -99.9022 and -95.4488 and -97.7263 and -96.8224 and -101.443 and -97.7214 and -100.308 and -97.0229 | cytotox (Calu-3 cells [9]; concentration log[M] -5): -80.4262 and -81.4732 and -68.7172 and -83.9318 and -82.4069 and -88.2536 and -90.1262 and -91.0255 and -86.7764 | cytotox (Calu-3 cells [9]; concentration log[M] -5.47712): -21.5211 and -21.4754 and -12.3695 and -29.1257 and -36.4975 and -41.3268 and -49.2553 and -54.1555 and -56.8603 | cytotox (Calu-3 cells [9]; concentration log[M] -5.95424): -2.83 and -11.281 and -7.043 and -17.8087 and -13.674 and -31.1214 and -23.8075 and -33.8515 and -29.7354 | cytotox (Calu-3 cells [9]; concentration log[M] -6.43136): 2.078 and 1.682 and 8.441 and -6.555 and 0.06053 and -11.5086 and -12.2093 and -0.8504 and -4.056 | cytotox (Calu-3 cells [9]; concentration log[M] -6.90848): 3.604 and 1.518 and 9.871 and 2.227 and 16.0597 and -0.8904 and 5.168 and 1.586 and 4.2472 | cytotox (Calu-3 cells [9]; concentration log[M] -7.38561): 8.858 and -2.4064 and 3.577 and 15.479 and 1.71 and -0.4894 and 11.4275 and 7.753 and 11.1753 | cytotox (Calu-3 cells [9]; concentration log[M] -7.86273): 1.729 and -14.6095 and -2.223 and 9.032 and 7.858 and -12.5661 and -1.561 and 2.663 and 8.58
